Experimental data reported in PubChem BioAssay (NCI).
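Dose response: 5 concentrations. Exposure: 48 h. Format: 96-well plates. Endpoint: linear interpolation; highest concentration if not reached. At the GI50, growth is halved. TGI marks complete inhibition of growth.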

Columns and labels:
Assay in all cases: NCI-60 cell line screen, 48 h
786-0 renal = test system: 786-0 renal
A498 renal = test system: A498 renal
A549 NSCLC = test system: A549 NSCLC
ACHN renal = test system: ACHN renal
BT-549 breast = test system: BT-549 breast
CAKI-1 renal = test system: CAKI-1 renal
CCRF-CEM leukemia = test system: CCRF-CEM leukemia
COLO 205 colon = test system: COLO 205 colon
DU-145 prostate = test system: DU-145 prostate
EKVX NSCLC = test system: EKVX NSCLC
HCC-2998 colon = test system: HCC-2998 colon
HCT-15 colon = test system: HCT-15 colon
HL-60(TB) leukemia = test system: HL-60(TB) leukemia
HOP-62 NSCLC = test system: HOP-62 NSCLC
HOP-92 NSCLC = test system: HOP-92 NSCLC
HS 578T breast = test system: HS 578T breast
HT29 colon = test system: HT29 colon
IGROV1 ovarian = test system: IGROV1 ovarian
K-562 leukemia = test system: K-562 leukemia
KM12 colon = test system: KM12 colon
LOX IMVI melanoma = test system: LOX IMVI melanoma
M14 melanoma = test system: M14 melanoma
MALME-3M melanoma = test system: MALME-3M melanoma
MCF7 breast = test system: MCF7 breast
MDA-MB-231 breast = test system: MDA-MB-231 breast
MDA-MB-435 = test system: MDA-MB-435
MOLT-4 leukemia = test system: MOLT-4 leukemia
NCI-H226 lung = test system: NCI-H226 lung
NCI-H23 lung = test system: NCI-H23 lung
NCI-H460 lung = test system: NCI-H460 lung
NCI-H522 lung = test system: NCI-H522 lung
NCI/ADR-RES ovarian = test system: NCI/ADR-RES ovarian
OVCAR-3 ovarian = test system: OVCAR-3 ovarian
OVCAR-4 ovarian = test system: OVCAR-4 ovarian
OVCAR-5 ovarian = test system: OVCAR-5 ovarian
OVCAR-8 ovarian = test system: OVCAR-8 ovarian
PC-3 prostate = test system: PC-3 prostate
RPMI-8226 leukemia = test system: RPMI-8226 leukemia
RXF 393 renal = test system: RXF 393 renal
SF-268 CNS = test system: SF-268 CNS
SF-295 CNS = test system: SF-295 CNS
SF-539 CNS = test system: SF-539 CNS
SK-MEL-2 melanoma = test system: SK-MEL-2 melanoma
SK-MEL-28 melanoma = test system: SK-MEL-28 melanoma
SK-OV-3 ovarian = test system: SK-OV-3 ovarian
SN12C renal = test system: SN12C renal
SNB-19 CNS = test system: SNB-19 CNS
SNB-75 CNS = test system: SNB-75 CNS
SW-620 colon = test system: SW-620 colon
T-47D breast = test system: T-47D breast
TK-10 renal = test system: TK-10 renal
U251 CNS = test system: U251 CNS
UACC-257 melanoma = test system: UACC-257 melanoma
UACC-62 melanoma = test system: UACC-62 melanoma
UO-31 renal = test system: UO-31 renal
HCT-116 colon = test system: HCT-116 colon
SK-MEL-5 melanoma = test system: SK-MEL-5 melanoma
SR leukemia = test system: SR leukemia

COc1cc(C(=O)O)ccc1NC(=O)[C@@H]1N[C@@H](CC(C)(C)C)[C@](C#N)(c2ccc(Cl)cc2F)[C@H]1c1cccc(Cl)c1F
GI50 (786-0 renal): 3.45 µM
TGI (786-0 renal): 18.4 µM
GI50 (A498 renal): 0.132 µM
TGI (A498 renal): 2.79 µM
GI50 (A549 NSCLC): 0.138 µM
TGI (A549 NSCLC): 8.21 µM
GI50 (ACHN renal): 0.0496 µM
TGI (ACHN renal): 6.82 µM
GI50 (BT-549 breast): 2.76 µM
TGI (BT-549 breast): 7.11 µM
GI50 (CAKI-1 renal): 0.1 µM
TGI (CAKI-1 renal): 7.01 µM
GI50 (CCRF-CEM leukemia): 2.53 µM
TGI (CCRF-CEM leukemia): > 26.3 µM
GI50 (COLO 205 colon): 3.1 µM
TGI (COLO 205 colon): 12 µM
GI50 (DU-145 prostate): 5.24 µM
TGI (DU-145 prostate): 30.4 µM
GI50 (EKVX NSCLC): 6.51 µM
TGI (EKVX NSCLC): 24 µM
GI50 (HCC-2998 colon): 4.62 µM
TGI (HCC-2998 colon): 13.3 µM
GI50 (HCT-15 colon): 2.93 µM
TGI (HCT-15 colon): 10.1 µM
GI50 (HL-60(TB) leukemia): 2.28 µM
TGI (HL-60(TB) leukemia): 6.71 µM
GI50 (HOP-62 NSCLC): 6.04 µM
TGI (HOP-62 NSCLC): 17.4 µM
GI50 (HOP-92 NSCLC): 2.48 µM
TGI (HOP-92 NSCLC): 5.15 µM
GI50 (HS 578T breast): 3.9 µM
TGI (HS 578T breast): 15.8 µM
GI50 (HT29 colon): 3.39 µM
TGI (HT29 colon): 22.2 µM
GI50 (IGROV1 ovarian): 2.21 µM
TGI (IGROV1 ovarian): 17.3 µM
GI50 (K-562 leukemia): 4.15 µM
TGI (K-562 leukemia): > 100 µM
GI50 (KM12 colon): 2.58 µM
TGI (KM12 colon): > 24.2 µM
GI50 (LOX IMVI melanoma): 0.148 µM
TGI (LOX IMVI melanoma): 6.84 µM
GI50 (M14 melanoma): 3.18 µM
TGI (M14 melanoma): > 30.1 µM
GI50 (MALME-3M melanoma): 0.0448 µM
TGI (MALME-3M melanoma): 8.27 µM
GI50 (MCF7 breast): 0.0328 µM
TGI (MCF7 breast): 4.12 µM
GI50 (MDA-MB-231 breast): 6.58 µM
TGI (MDA-MB-231 breast): > 100 µM
GI50 (MDA-MB-435): 2.82 µM
TGI (MDA-MB-435): 13.1 µM
GI50 (MOLT-4 leukemia): 0.083 µM
TGI (MOLT-4 leukemia): 2.07 µM
GI50 (NCI-H226 lung): 0.0941 µM
TGI (NCI-H226 lung): 1.71 µM
GI50 (NCI-H23 lung): 5.47 µM
TGI (NCI-H23 lung): 19.5 µM
GI50 (NCI-H460 lung): 0.077 µM
TGI (NCI-H460 lung): 2.27 µM
GI50 (NCI-H522 lung): 2.72 µM
TGI (NCI-H522 lung): 10.8 µM
GI50 (NCI/ADR-RES ovarian): 6.83 µM
TGI (NCI/ADR-RES ovarian): 25.2 µM
GI50 (OVCAR-3 ovarian): 1.77 µM
TGI (OVCAR-3 ovarian): 4.3 µM
GI50 (OVCAR-4 ovarian): 4.56 µM
TGI (OVCAR-4 ovarian): 29.6 µM
GI50 (OVCAR-5 ovarian): 7.23 µM
TGI (OVCAR-5 ovarian): 24.9 µM
GI50 (OVCAR-8 ovarian): 4.08 µM
TGI (OVCAR-8 ovarian): 23 µM
GI50 (PC-3 prostate): 2.91 µM
TGI (PC-3 prostate): > 42.6 µM
GI50 (RPMI-8226 leukemia): 2.51 µM
TGI (RPMI-8226 leukemia): > 22.9 µM
GI50 (RXF 393 renal): 3.55 µM
TGI (RXF 393 renal): 10.3 µM
GI50 (SF-268 CNS): 4.62 µM
TGI (SF-268 CNS): 30.5 µM
GI50 (SF-295 CNS): 2.78 µM
TGI (SF-295 CNS): 8.64 µM
GI50 (SF-539 CNS): 3.63 µM
TGI (SF-539 CNS): 11.5 µM
GI50 (SK-MEL-2 melanoma): 2.96 µM
TGI (SK-MEL-2 melanoma): 10 µM
GI50 (SK-MEL-28 melanoma): 2.56 µM
TGI (SK-MEL-28 melanoma): 7.59 µM
GI50 (SK-OV-3 ovarian): 7.02 µM
TGI (SK-OV-3 ovarian): 21.3 µM
GI50 (SN12C renal): 4.27 µM
TGI (SN12C renal): > 41.9 µM
GI50 (SNB-19 CNS): 5.6 µM
TGI (SNB-19 CNS): 31.2 µM
GI50 (SNB-75 CNS): 3.35 µM
TGI (SNB-75 CNS): 20.9 µM
GI50 (SW-620 colon): 3.02 µM
TGI (SW-620 colon): > 26.3 µM
GI50 (T-47D breast): 5.23 µM
TGI (T-47D breast): 43.7 µM
GI50 (TK-10 renal): 5.28 µM
TGI (TK-10 renal): 21.2 µM
GI50 (U251 CNS): 3.16 µM
TGI (U251 CNS): 11 µM
GI50 (UACC-257 melanoma): 0.145 µM
TGI (UACC-257 melanoma): 1.83 µM
GI50 (UACC-62 melanoma): 0.0909 µM
TGI (UACC-62 melanoma): 2.13 µM
GI50 (UO-31 renal): 0.0414 µM
TGI (UO-31 renal): 5.03 µM

Cc1ncc([N+](=O)[O-])n1CC(O)Cn1cnc([N+](=O)[O-])n1 (centres undefined)
TGI (786-0 renal): > 100 µM
TGI (A498 renal): > 100 µM
TGI (A549 NSCLC): > 100 µM
TGI (ACHN renal): > 100 µM
TGI (CCRF-CEM leukemia): > 100 µM
TGI (EKVX NSCLC): > 100 µM
TGI (HCC-2998 colon): > 100 µM
TGI (HCT-116 colon): > 100 µM
TGI (HCT-15 colon): > 100 µM
TGI (HL-60(TB) leukemia): > 100 µM
TGI (HOP-62 NSCLC): > 100 µM
TGI (HS 578T breast): > 100 µM
TGI (HT29 colon): > 100 µM
TGI (K-562 leukemia): > 100 µM
TGI (KM12 colon): > 100 µM
TGI (MALME-3M melanoma): > 100 µM
TGI (MCF7 breast): > 100 µM
TGI (MOLT-4 leukemia): > 100 µM
TGI (NCI-H226 lung): > 100 µM
TGI (NCI-H23 lung): > 100 µM
TGI (NCI-H460 lung): > 100 µM
TGI (NCI-H522 lung): > 100 µM
TGI (OVCAR-3 ovarian): > 100 µM
TGI (OVCAR-5 ovarian): > 100 µM
TGI (OVCAR-8 ovarian): > 100 µM
TGI (PC-3 prostate): > 100 µM
TGI (RPMI-8226 leukemia): > 100 µM
TGI (SF-268 CNS): > 100 µM
TGI (SF-295 CNS): > 100 µM
TGI (SF-539 CNS): > 100 µM
TGI (SK-MEL-2 melanoma): > 100 µM
TGI (SK-MEL-28 melanoma): > 100 µM
TGI (SK-MEL-5 melanoma): > 100 µM
TGI (SN12C renal): > 100 µM
TGI (SNB-75 CNS): > 100 µM
TGI (SR leukemia): > 100 µM
TGI (SW-620 colon): > 100 µM
TGI (U251 CNS): > 100 µM
TGI (UACC-257 melanoma): > 100 µM
